Measurements: ChEMBL document CHEMBL1201862, “PubChem BioAssay data set” (2004)
Values belong to the compound of their own block, whether it stands above or below them. The source made the active and inactive calls.

What was measured:
[1] = molecular target: Signal transducer and activator of transcription 3 (Homo sapiens, UniProt P40763); test: STAT3 blockade with qPCR and toxicity readouts – cell-based, STAT1 panel, cytotoxicity, late-stage follow-up, panel member STAT3 Inhibition (AID 2078)
[2] = molecular target: Signal transducer and activator of transcription 1-alpha/beta (Homo sapiens, UniProt P42224); test: STAT3 blockade with qPCR and toxicity readouts – cell-based, STAT1 panel, cytotoxicity, late-stage follow-up, panel member STAT1 Inhibition (AID 2078)
Signal transducer and activator of transcription 1-alpha/beta, sequence (P42224 whole entry): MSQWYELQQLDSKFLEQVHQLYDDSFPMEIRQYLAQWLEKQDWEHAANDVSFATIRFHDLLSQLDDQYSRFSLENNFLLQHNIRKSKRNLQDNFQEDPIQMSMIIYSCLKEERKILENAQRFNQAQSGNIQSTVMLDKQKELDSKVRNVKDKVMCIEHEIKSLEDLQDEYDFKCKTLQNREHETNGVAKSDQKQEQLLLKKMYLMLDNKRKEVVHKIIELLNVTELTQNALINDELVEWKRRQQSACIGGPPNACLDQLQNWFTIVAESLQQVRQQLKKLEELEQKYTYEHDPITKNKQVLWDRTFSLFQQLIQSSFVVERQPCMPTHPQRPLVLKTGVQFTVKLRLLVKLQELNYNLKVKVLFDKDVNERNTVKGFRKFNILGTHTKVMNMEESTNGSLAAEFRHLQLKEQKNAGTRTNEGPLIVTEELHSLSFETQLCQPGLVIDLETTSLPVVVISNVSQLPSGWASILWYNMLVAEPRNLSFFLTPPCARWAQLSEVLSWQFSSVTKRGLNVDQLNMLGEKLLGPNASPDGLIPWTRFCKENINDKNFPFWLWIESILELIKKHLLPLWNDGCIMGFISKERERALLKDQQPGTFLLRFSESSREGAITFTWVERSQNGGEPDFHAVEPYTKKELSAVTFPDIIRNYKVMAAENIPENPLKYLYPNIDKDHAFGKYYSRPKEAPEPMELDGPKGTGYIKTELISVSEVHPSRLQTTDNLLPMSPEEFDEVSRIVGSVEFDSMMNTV

[3] = molecular target: T1, Peroxisome proliferator-activated receptor gamma (Homo sapiens, UniProt P37231); test: PPARg transcriptional activation, reporter cells – cell-based, luminescence, assay provider, dose response (AID 504447); type: functional
T1 sequence (P37231 whole entry): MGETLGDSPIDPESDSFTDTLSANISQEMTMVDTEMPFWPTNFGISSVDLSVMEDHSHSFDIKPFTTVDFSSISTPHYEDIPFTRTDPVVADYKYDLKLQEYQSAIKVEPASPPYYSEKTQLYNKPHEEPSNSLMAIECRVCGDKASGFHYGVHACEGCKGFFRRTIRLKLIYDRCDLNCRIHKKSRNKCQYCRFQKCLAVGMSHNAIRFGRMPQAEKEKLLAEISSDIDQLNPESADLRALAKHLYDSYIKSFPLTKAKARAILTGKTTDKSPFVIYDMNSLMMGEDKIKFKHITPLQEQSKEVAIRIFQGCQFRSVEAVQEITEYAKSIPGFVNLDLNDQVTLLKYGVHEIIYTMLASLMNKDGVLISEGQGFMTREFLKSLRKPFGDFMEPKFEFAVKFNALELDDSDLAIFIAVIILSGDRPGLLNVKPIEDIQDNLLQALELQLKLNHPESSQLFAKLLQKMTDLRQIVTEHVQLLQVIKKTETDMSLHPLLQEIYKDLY

[4] = molecular target: T1, Peroxisome proliferator-activated receptor gamma; test: competitive ligand displacement at PPARg – biochemical, TR-FRET, LanthaScreen, PPARg partial agonist project, dose response (AID 504446)
[5] = molecular target: Peroxisome proliferator-activated receptor alpha (Homo sapiens, UniProt Q07869); test: Late stage assay provider counterscreen for partial agonists of the peroxisome proliferator-activated receptor gamma (PPARg): Luminescence-based cell-based dose response assay for partial agonists of the peroxisome proliferator-activated receptor alpha (PPARA). [Related pubchem assays (depositor defined):AID1051, AID1300, AID1319, AID1679, AID1808, AID504446, AID504447, AID504452, AID504453, AID631]; type: functional
Peroxisome proliferator-activated receptor alpha, sequence (Q07869 whole entry): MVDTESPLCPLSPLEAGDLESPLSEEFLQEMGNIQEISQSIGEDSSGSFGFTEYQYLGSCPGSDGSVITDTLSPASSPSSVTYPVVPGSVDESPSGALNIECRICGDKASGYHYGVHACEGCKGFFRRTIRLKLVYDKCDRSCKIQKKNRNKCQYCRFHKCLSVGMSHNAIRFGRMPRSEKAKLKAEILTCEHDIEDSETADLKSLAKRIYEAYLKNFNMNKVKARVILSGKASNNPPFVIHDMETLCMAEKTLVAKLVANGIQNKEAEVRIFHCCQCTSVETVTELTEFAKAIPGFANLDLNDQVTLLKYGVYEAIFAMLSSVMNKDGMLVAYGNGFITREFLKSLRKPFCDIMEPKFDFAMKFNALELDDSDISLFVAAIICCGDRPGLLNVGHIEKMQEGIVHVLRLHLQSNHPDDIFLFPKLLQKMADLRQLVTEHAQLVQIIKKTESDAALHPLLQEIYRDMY

[6] = molecular target: T2, Kappa-type opioid receptor (Homo sapiens, UniProt P41145); test: SAR analysis of small molecule agonists of the kappa opioid receptor via a luminescent beta-arrestin assay. [Related pubchem assays (depositor defined):AID1777, AID1786, AID1966, AID2133, AID2136, AID2348, AID2352, AID2357, AID2359, AID2370, AID2420, AID2478, AID2491, AID2492, AID2493, AID2497, AID2498, AID2500, AID449737, AID488822, AID488842]; type: functional
T2 sequence (P41145 whole entry): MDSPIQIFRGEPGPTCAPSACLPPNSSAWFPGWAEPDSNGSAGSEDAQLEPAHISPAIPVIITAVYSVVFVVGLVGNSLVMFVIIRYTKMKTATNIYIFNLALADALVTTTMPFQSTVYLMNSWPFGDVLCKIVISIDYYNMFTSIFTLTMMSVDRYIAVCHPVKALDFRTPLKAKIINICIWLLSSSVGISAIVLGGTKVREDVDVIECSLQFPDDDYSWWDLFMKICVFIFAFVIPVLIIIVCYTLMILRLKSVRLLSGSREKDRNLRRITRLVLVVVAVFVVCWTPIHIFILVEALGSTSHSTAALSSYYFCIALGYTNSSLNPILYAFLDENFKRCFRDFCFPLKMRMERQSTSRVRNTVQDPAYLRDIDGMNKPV

[7] = molecular target: T3, Delta-type opioid receptor (Homo sapiens, UniProt P41143); test: HTS Image-Based Screen for Agonists of the DOR Receptor. [Related pubchem assays (depositor defined):AID1777, AID1786, AID2133]; type: functional
T3 sequence (P41143 whole entry): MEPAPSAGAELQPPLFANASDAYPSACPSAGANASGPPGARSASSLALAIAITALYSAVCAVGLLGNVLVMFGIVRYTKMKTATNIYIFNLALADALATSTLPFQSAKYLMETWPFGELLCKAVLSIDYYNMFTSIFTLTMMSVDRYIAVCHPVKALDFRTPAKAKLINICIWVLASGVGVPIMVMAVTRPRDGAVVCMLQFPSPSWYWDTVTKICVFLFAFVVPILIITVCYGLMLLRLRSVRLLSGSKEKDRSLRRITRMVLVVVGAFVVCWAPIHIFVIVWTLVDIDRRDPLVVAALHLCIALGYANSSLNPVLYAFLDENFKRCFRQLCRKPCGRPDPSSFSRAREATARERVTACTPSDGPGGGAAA

[8] = molecular target: T3, Delta-type opioid receptor; test: delta opioid receptor blockers – image-based, SAR follow-up (AID 2357); type: functional
[9] = molecular target: T2, Kappa-type opioid receptor; test: kappa opioid receptor blockers, image-based, SAR follow-up (AID 2348); type: functional
[10] = molecular target: T4, Mu-type opioid receptor (Homo sapiens, UniProt P35372); test: mu opioid receptor blockers – image-based, SAR follow-up (AID 2420); type: functional;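 note: compounds added before stimulation of receptor with agonist DAMGO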
T4 sequence (P35372 whole entry): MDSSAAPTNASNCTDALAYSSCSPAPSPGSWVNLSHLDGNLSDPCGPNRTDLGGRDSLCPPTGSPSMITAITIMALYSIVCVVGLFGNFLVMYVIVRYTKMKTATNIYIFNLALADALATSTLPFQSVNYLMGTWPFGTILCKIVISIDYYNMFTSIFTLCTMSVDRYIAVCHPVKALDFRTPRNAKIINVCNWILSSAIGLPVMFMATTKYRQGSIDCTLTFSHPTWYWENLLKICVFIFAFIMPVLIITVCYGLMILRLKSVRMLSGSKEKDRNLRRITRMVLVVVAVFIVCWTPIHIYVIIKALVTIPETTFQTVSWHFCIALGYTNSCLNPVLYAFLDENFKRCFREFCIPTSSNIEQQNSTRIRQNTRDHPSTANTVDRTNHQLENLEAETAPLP

[11] = molecular target: T4, Mu-type opioid receptor; test: HTS Image-Based Screen for Agonists of the MOR Receptor. [Related pubchem assays (depositor defined):AID1777, AID1785, AID1786, AID2133]; type: functional
[12] = molecular target: T2, Kappa-type opioid receptor; type: functional
[13] = molecular target: T2, Kappa-type opioid receptor; type: functional; remark: listed apart in the source
[14] = molecular target: T2, Kappa-type opioid receptor; test: kappa opioid receptor activation potency – imaging, image-based, SAR follow-up (AID 2359); type: functional
[15] = molecular target: T3, Delta-type opioid receptor; test: DOR agonists, SAR follow-up, image-based (AID 2370); type: functional
[16] = molecular target: T4, Mu-type opioid receptor; test: mu opioid receptor activators, image-based, SAR follow-up (AID 2352); type: functional
[17] = molecular target: T3, Delta-type opioid receptor; test: HTS Image-Based Screen for Antagonists of the DOR Receptor. [Related pubchem assays (depositor defined):AID1777, AID1785, AID1786, AID2133]; type: functional

Signal transducer and activator of transcription 3, sequence (P40763 whole entry): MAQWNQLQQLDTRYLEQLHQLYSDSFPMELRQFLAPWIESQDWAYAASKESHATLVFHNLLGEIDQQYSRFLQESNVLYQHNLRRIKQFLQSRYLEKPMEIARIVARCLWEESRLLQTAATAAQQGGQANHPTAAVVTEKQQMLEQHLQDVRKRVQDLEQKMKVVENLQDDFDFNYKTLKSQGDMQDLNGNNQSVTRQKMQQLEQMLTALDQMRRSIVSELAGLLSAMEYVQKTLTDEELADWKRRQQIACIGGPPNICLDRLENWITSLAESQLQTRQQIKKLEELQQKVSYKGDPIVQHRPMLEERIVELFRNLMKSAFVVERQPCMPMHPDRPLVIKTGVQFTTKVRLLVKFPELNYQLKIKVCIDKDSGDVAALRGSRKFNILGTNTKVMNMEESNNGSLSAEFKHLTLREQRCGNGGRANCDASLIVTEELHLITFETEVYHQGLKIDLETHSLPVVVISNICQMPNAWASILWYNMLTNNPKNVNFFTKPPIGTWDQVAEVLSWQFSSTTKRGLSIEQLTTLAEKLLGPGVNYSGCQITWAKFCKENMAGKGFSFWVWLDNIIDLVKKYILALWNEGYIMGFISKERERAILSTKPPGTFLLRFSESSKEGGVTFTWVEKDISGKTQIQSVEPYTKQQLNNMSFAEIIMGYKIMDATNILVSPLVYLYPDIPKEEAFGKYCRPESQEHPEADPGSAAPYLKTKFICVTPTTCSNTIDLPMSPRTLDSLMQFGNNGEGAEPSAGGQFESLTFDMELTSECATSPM

SMILES: O=C(c1ccc(F)cc1)C1CCN(c2ncnc3sccc23)CC1
- IC50 [1]: 1.68 µM (active)
- IC50 [2]: > 55.7 µM (inactive)

- EC50 [3]: 3.2 µM (active)
- IC50 [4]: 3.2 µM (active)
- EC50 [5]: 0.12 µM (active)
SMILES: CCCCOC(=O)CCN1C(=O)/C(=C/c2ccccc2)SC1=S

- EC50 [6]: 2.22 µM (active)
- EC50 [7]: > 32 µM (inactive)
- IC50 [8]: > 32 µM (inactive)
- IC50 [9]: > 32 µM (inactive)
- IC50 [10]: > 32 µM (inactive)
- EC50 [11]: > 32 µM (inactive)
- EC50 [12]: 3.18 µM
- EC50 [13]: 5.22 µM
- EC50 [14]: 1.43 µM (active)
- EC50 [15]: > 32 µM (inactive)
- EC50 [16]: > 32 µM (inactive)
- IC50 [17]: > 32 µM (inactive)
SMILES: C(=C\c1ccccc1)/CSc1nnc(-c2ccccn2)n1Cc1ccco1
